Measurements: patent publication US20220331414A1, “LIPID COMPOUNDS AND LIPID NANOPARTICLE COMPOSITIONS” (Suzhou Abogen Biosciences Co., Ltd., priority 2020, published 2022)

Assays:
[1] = Encapsulation efficiency of lipid nanoparticles (Quant-it Ribogreen RNA assay); type: physicochemical
Protocol: (§1) Briefly, a cationic lipid provided herein, DSPC, cholesterol, and PEG-lipid were solubilized in ethanol at a molar ratio of 50:10:38.5:1.5, and mRNA were diluted in 10 to 50 mM citrate buffer, pH=4. The LNPs were prepared at a total lipid to mRNA weight ratio of approximately 10:1 to 30:1 by mixing the ethanolic lipid solution with the aqueous mRNA solution at a volume ratio of 1:3 using a microfluidic apparatus, total flow rate ranging from 9-30 mL/min. Ethanol were thereby removed and replaced by DPBS using dialysis. Finally, the lipid nanoparticles were filtered through a 0.2 μm sterile filter.
(§2) Lipid nanoparticle size were determined by dynamic light scattering using a Malvern Zetasizer Nano ZS (Malvern UK) using a 173° backscatter detection mode. The encapsulation efficiency of lipid nanoparticles were determined using a Quant-it Ribogreen RNA quantification assay kit (Thermo Fisher Scientific, UK) according to the manufacturer's instructions.

[2] = Apparent pKa of LNP formulations by TNS fluorescence assay; conditions: LNP cationic lipid/DSPC/cholesterol/DMG-PEG 50/10/38.5/1.5 mol %, pH 3 to 9
Protocol: TNS was prepared as a 300 uM stock solution in distilled water. LNP formulations were diluted to 0.1 mg/ml total lipid in 3 mL of buffered solutions containing 50 mM sodium citrate, 50 mM sodium phosphate, 50 mM sodium borate, and 30 mM sodium chloride where the pH ranged from 3 to 9. An aliquot of the TNS solution was added to give a final concentration of 0.1 mg/ml and following vortex mixing fluorescence intensity was measured at room temperature in a Molecular Devices Spectramax iD3 spectrometer using excitation and mission wavelengths of 325 nm and 435 nm. A sigmoidal best fit analysis was applied to the fluorescence data and the pKa value was measured as the pH giving rise to half—maximal fluorescent intensity.

[3] = Lipid nanoparticle size and polydispersity by dynamic light scattering; type: physicochemical; conditions: LNP of cationic lipid/DSPC/cholesterol/PEG-lipid 50:10:38.5:1.5 with mRNA
Protocol: as §1, §2

[4] = LNP of cationic lipid/DSPC/cholesterol/PEG-lipid 50:10:38.5:1.5 with mRNA

| SMILES | Encapsulation Efficiency [1, 4] | Apparant Pka [2] | polydispersity [3] | size (nm) [3] | Encapsulation Efficiency ([1]; cell printed without % sign) |
| --- | --- | --- | --- | --- | --- |
| CCCCCCCCC(CCCCCC)COP(=O)(NCCCN1CCCCCC1)OCC(CCCCCC)CCCCCCCC (stereo not shown) [Compound 29] | 58.9% | 5.51 | 0.09 | 84.8 nm |  |
| CCCCCCCCC(CCCCCC)COP(=O)(NCCN1CCOCC1)OCC(CCCCCC)CCCCCCCC (stereo not shown) [Compound 30] | 16.8% | 3.88 | 0.197 | 71.91 nm |  |
| CCCCCCCCC(CCCCCC)COP(=O)(NCCCN1CCOCC1)OCC(CCCCCC)CCCCCCCC (stereo not shown) [Compound 31] | 91.8% | 5.21 | 0.159 | 62.39 nm |  |
| CCCCCCCCCOP(=O)(NCCCN(C)C)OCCCCCCCC(=O)OC(CCCCCCCC)CCCCCCCC (stereo not shown) [Compound 32] | 101.1% | 8.96 | 0.077 | 80.54 nm |  |
| CCCCCCCCCOP(=O)(NCCN1CCCCC1)OCCCCCCCC(=O)OC(CCCCCCCC)CCCCCCCC (stereo not shown) [Compound 33] | 98.2% | 7.74 | 0.091 | 128.5 nm |  |
| CCCCCCCCCCCCCOP(=O)(NCCN1CCCCC1)OCCCCCCCC(=O)OC(CCCCCCCC)CCCCCCCC (stereo not shown) [Compound 34] | 98.4% | 7.45 | 0.258 | 58.48 nm |  |
| CCCCCCCCCCCCCOP(=O)(NCCCN1CCCCC1)OCCCCCCCC(=O)OC(CCCCCCCC)CCCCCCCC (stereo not shown) [Compound 35] | 99.9% | 9.42 | 0.245 | 62.7 nm |  |
| CCCCCCCCC(CCCCCCCC)OC(=O)CCCCCCCOP(=O)(NCCCN(C)C)OCCCCCCCC(=O)OC(CCCCCCCC)CCCCCCCC [Compound 36] | 95.3% | 6.20 | 0.091 | 63.97 nm |  |
| CCCCCCCCC(CCCCCCCC)OC(=O)CCCCCCCOP(=O)(NCCCN(C)C)NCCCN(C)C [Compound 37] | 48.8% | 4.55 | 0.166 | 104.3 nm |  |
| CCCCCCCCC(CCCCCCCC)OC(=O)CCCCCCCOP(=O)(NCCN(C)C)OCCCCCCCC(=O)OC(CCCCCCCC)CCCCCCCC [Compound 38] | 45.9% | 5.84 | 0.094 | 108.5 nm |  |
| CCCCCCCCCCCCCOP(=O)(NCCCN(C)C)OCCCCCCCC(=O)OC(CCCCCCCC)CCCCCCCC (stereo not shown) [Compound 39] | 100.0% | 6.52 | 0.408 | 69.38 nm |  |
| CCCCCCCCCOC(=O)CCCCCCCOP(=O)(NCCCN(C)C)OCCCCCCCC(=O)OC(CCCCCCCC)CCCCCCCC (stereo not shown) [Compound 40] | 99.6% | 7.77 | 0.122 | 80.83 nm |  |
| CCCCCCCCCCCCCOP(=O)(NCCN1CCC1)OCCCCCCCC(=O)OC(CCCCCCCC)CCCCCCCC (stereo not shown) [Compound 41] | 101.1% | 7.70 | 0.306 | 50.64 nm |  |
| CCCCCCCCC(CCCCCCCC)OC(=O)CCCCCCCOP(=O)(NCCCN(C)C)OCCCCCCC (stereo not shown) [Compound 43] | 98.3% | 8.08 | 0.196 | 76.16 nm |  |
| CCCCCCCCC(CCCCCCCC)OC(=O)CCCCCCCOP(=O)(NCCCCN(C)C)OCCCCCCC (stereo not shown) [Compound 44] | 94.0% | 5.17 | 0.187 | 51.72 nm |  |
| CCCCCCCCC(CCCCCC)COP(=O)(NCCN(C)CCO)OCC(CCCCCC)CCCCCCCC (stereo not shown) [Compound 46] | 99.0% | 6.85 | 0.114 | 54.72 nm |  |

| SMILES | Encapsulation Efficiency [1, 4] | Apparant Pka [2] | polydispersity [3] | size (nm) [3] | Encapsulation Efficiency ([1]; cell printed without % sign) |
| --- | --- | --- | --- | --- | --- |
| CCCCCCCCC(CCCCCC)COP(=O)(NCCN(CCO)C1CCCCC1)OCC(CCCCCC)CCCCCCCC (stereo not shown) [Compound 47] |  | 5.27 | 0.071 | 73.53 nm | 0.864 |
| CCCCCCCCC(CCCCCC)COP(=O)(NCCN(CC)CC)OCC(CCCCCC)CCCCCCCC (stereo not shown) [Compound 49] | 95.1% | 6.47 | 0.191 | 58.02 nm |  |
| CCCCCCCCC(CCCCCC)COP(=O)(NCCN(CCCC)CCCC)OCC(CCCCCC)CCCCCCCC (stereo not shown) [Compound 51] | 75.52% | 6.66 | 0.167 | 88.45 nm |  |
| CCCCCCCCC(CCCCCC)COP(=O)(NCCN(CCC)CCO)OCC(CCCCCC)CCCCCCCC (stereo not shown) [Compound 53] | 95.1% | 5.679 | 0.329 | 90.86 nm |  |
| CCCCCCCCC(CCCCCC)COP(=O)(NCCN(CCO)CCCC)OCC(CCCCCC)CCCCCCCC (stereo not shown) [Compound 54] | 88.8% | 5.644 | 0.037 | 138.5 nm |  |
| CCCCCCCCC(CCCCCC)COP(=O)(NCCN(CCO)CCCCC)OCC(CCCCCC)CCCCCCCC (stereo not shown) [Compound 55] | 90.9% | 5.615 | 0.132 | 62.03 nm |  |
| CCCCCCCCC(CCCCCC)COP(=O)(NCCN(CCO)CCCCCC)OCC(CCCCCC)CCCCCCCC (stereo not shown) [Compound 56] | 92.5% | 5.253 | 0.264 | 139.3 nm |  |
| CCCCCCCCC(CCCCCC)COP(=O)(NCCN(CCO)C1CCC1)OCC(CCCCCC)CCCCCCCC (stereo not shown) [Compound 57] | 91.0% | 5.325 | 0.196 | 78.22 nm |  |
| CCCCCCCCC(CCCCCC)COP(=O)(NCCN(CCO)C1CCCC1)OCC(CCCCCC)CCCCCCCC (stereo not shown) [Compound 58] | 88.8% | 5.681 | 0.057 | 97.61 nm |  |
| CCCCCCCCC(CCCCCC)C(C)OP(=O)(NCCN(CC)CC)OC(C)C(CCCCCC)CCCCCCCC (stereo not shown) [Compound 59] | 58.6% | 4.385 | 0.118 | 90.85 nm |  |
| CCCCCCCCC(CCCCCC)COP(=O)(NCCN1CCC(F)(F)C1)OCC(CCCCCC)CCCCCCCC (stereo not shown) [Compound 60] | 55.0% | 3.726 | 0.179 | 85.33 nm |  |
| CCCCCCCCC(CCCCCC)COP(=O)(NCCN1CC2CC2C1)OCC(CCCCCC)CCCCCCCC (stereo not shown) [Compound 62] | 89.9% | 5.063 | 0.338 | 56.35 nm |  |
| CCCCCCCCC(CCCCCC)COP(=O)(NCCN1CCC(O)C1)OCC(CCCCCC)CCCCCCCC (stereo not shown) [Compound 63] | 97.0% | 6.892 | 0.148 | 53.85 nm |  |
| CCCCCCC(CCCCCC)COP(=O)(NCCN(CC)CC)OCC(CCCCCC)CCCCCC [Compound 65] | 94.1% | 6.133 | 0.085 | 95.97 nm |  |
| CCCCCCCCCCC(CCCCCC)COP(=O)(NCCN(CC)CC)OCC(CCCCCC)CCCCCCCCCC (stereo not shown) [Compound 66] | 94.4% | 6.149 | 0.141 | 54.17 nm |  |
